For orientation: melting point means the temperature, or range, at which the solid turns liquid.

Several values for one entry are separate records, joined by “and”; a condition that tells them apart may be missing. Equal entries are not always repeated. Structures can show the parent of a compound that is named as a salt.

The values that follow come from patent US7056903B2, “Carboxylic acid derivatives as IP antagonists” (Syntex (U.S.A.) LLC, priority 2000, dated 2006).

With `O=C(N[C@H](Cc1ccccc1)C(=O)O)OCc1cc2cc(-c3cc(F)ccc3F)ccc2o1` [Compound 103, (R)-2-[5-(2,5-difluoro-phenyl)-benzofuran-2-ylmethoxycarbonylamino]-3-phenyl-propionic acid], the melting point lay within 89.4 to 92.6 °C.
Under `O=C(NC(Cc1ccccc1)C(=O)O)OCc1ccc(/C=C/c2ccccc2)cc1` (stereo not shown) [Compound 133, 3-phenyl-2-[4-((E)-styryl)-benzyloxycarbonylamino]-propionic acid] stands 165 to 168.5 °C; under `O=C(N[C@H](Cc1ccccc1)C(=O)O)OCc1ccc2[nH]c(-c3ccccc3)cc2c1` [Compound 132, (R)-3-phenyl-2-(2-phenyl-1H-indol-5-ylmethoxycarbonylamino)-propionic acid], 176 to 177 °C.
As for `O=C(NC(Cc1ccccc1)C(=O)O)OCc1ccc(COc2cccc3[nH]ccc23)cc1` (stereo not shown) [Compound 41, 2-[4-(1H-indol-4-yloxymethyl)-benzyloxycarbonylamino]-3-phenyl-propionic acid], the figure is 106.8 to 108.2 °C and 105.9 to 108.5 °C.
As to `O=C(N[C@H](Cc1ccc(F)cc1)C(=O)O)OCc1cc2cc(-c3ccccc3)ccc2o1` (hydrate or solvate) [Compound 105, (R)-3-(4-fluoro-phenyl)-2-(5-phenylbenzofuran-2-ylmethoxycarbonylamino)-propionic acid], the melting point fell in the range of 131.5 to 135 °C.
`O=C(N[C@H](Cc1ccc(F)cc1)C(=O)O)OCc1ccc2oc(-c3ccc(F)cc3)cc2c1` [Compound 140, (R)-3-(4-fluoro-phenyl)-2-[2-(4-fluoro-phenyl)-benzofuran-5-ylmethoxycarbonylamino]-propionic acid]: the melting point lay in the range of 201 to 204 °C.
Turning to `O=C(N[C@@H](Cc1ccc(F)cc1)C(=O)O)OCc1cc2cc(-c3ccc(F)cc3)ccc2o1` [Compound 113, (S)-3-(4-fluoro-phenyl)-2-[5-(4-fluoro-phenyl)-benzofuran-2-ylmethoxycarbonylamino]-propionic acid], the melting point fell in the range of 148.3 to 157 °C.
`O=C(N[C@H](Cc1ccccc1)C(=O)O)OCc1cc2cc(C(=O)c3ccccc3)ccc2o1` [Compound 136, (R)-3-phenyl-2-[5-(1-phenyl-methanoyl)-benzofuran-2-ylmethoxycarbonylamino]-propionic acid]: the melting point fell in the range of 136.3 to 138.6 °C.
Under `CC(C)(C)c1ccc(-c2ccc3oc(COC(=O)N[C@H](Cc4ccc(F)cc4)C(=O)O)cc3c2)cc1` [Compound 117, (R)-2-[5-(4-tert-butyl-phenyl)-benzofuran-2-ylmethoxycarbonylamino]-3-(4-fluoro-phenyl)-propionic acid] stands 114.3 to 124.6 °C.
As for `O=C(N[C@H](Cc1ccccc1)C(=O)O)OCc1ccc2oc(Cc3ccccc3)cc2c1` [Compound 139, (R)-2-(2-benzyl-benzofuran-5-ylmethoxycarbonylamino)-3-phenyl-propionic acid], the figure is 108.8 to 110.5 °C; as for `O=C(N[C@H](Cc1ccccc1)C(=O)O)OCc1nc2cc(-c3ccccc3)ccc2o1` (as salt: ammonium) [Compound 53, (R)-3-phenyl-2-(5-phenyl-benzoxazol-2-ylmethoxycarbonylamino) propionic acid], 150.9 to 152.7 °C; as for `Cn1cc(C[C@@H](NC(=O)OCc2ccc(-c3ccccc3)cc2)C(=O)O)c2ccccc21` [Compound 145, (R)-2-(biphenyl-4-ylmethoxycarbonylamino)-3-(1-methyl-1H-indol-3-yl)-propionic acid], 156.7 to 157.2 °C.
For `COc1ccccc1OCc1ccc(COC(=O)NC(Cc2ccccc2)C(=O)O)cc1` (stereo not shown) [Compound 74, 2-[4-(2-methoxy-phenoxymethyl)-benzyloxycarbonylamino]-3-phenyl propionic acid], the melting point was 92.6 to 93.5 °C.
